Test results from patent US9605064B2, “Methods and compositions for treatment of skin disorders” (AbbVie Biotechnology Ltd, priority 2006, dated 2017).

Tests used:
[1] = test system: patients with moderate to severe chronic plaque psoriasis; assay: PASI response, open-label extension of CHAMPION (methotrexate to adalimumab transition); assay type: in vivo, human; conditions: prior to starting adalimumab, after 16 weeks of methotrexate in CHAMPION; 95 patients
[2] = test system: patients with moderate to severe chronic plaque psoriasis; conditions: human, in vivo, 16 weeks
Description: (§2) The study was a multi-center, 16-week, randomized controlled Phase III trial. The main inclusion criteria included: • Clinical diagnosis of psoriasis for ≧1 year • Affected body surface area (BSA)≧10% • Psoriasis Area and Severity Index (PASI)≧10 The main exclusion criteria was previous use of MTX or systemic anti-TNF therapy.

[3] = test system: patients with moderate to severe chronic plaque psoriasis; assay: Adverse events, CHAMPION 16-week Phase III trial; conditions: 16-week study
Description: as §2

[4] = test system: patients with moderate to severe chronic plaque psoriasis; assay: PASI response, CHAMPION 16-week Phase III trial vs methotrexate and placebo; assay type: in vivo, human; conditions: ITT; for PASI 75 Response Rates, % Patients / PASI 90 Response Rates, % Patients: missing PASI = non-responder
Method: (§1) Analytical methods included the following: • Intention-to-treat analyses were performed for all randomized patients • Missing data were analyzed using non-responder imputation (NRI) • PASI 75 at Week 16 (primary endpoint) was analyzed using adjusted Cochran-Mantel-Haenszel test.

[5] = test system: patients with moderate to severe chronic plaque psoriasis; assay: PGA, CHAMPION 16-week Phase III trial; assay type: in vivo, human; conditions: ITT, missing PGA = not achieving
Method: as §1

[6] = MTX N = 110, Adalimumab N = 107

CN(Cc1cnc2nc(N)nc(N)c2n1)c1ccc(C(=O)N[C@@H](CCC(=O)O)C(=O)O)cc1 [methotrexate, reference compound]
PASI 75 response rate [1]: 28%
PASI 90 response rate [1]: 14%
PASI 100 response rate [1]: 5%
Viral Infection [2]: 6 (6) n (%)
Any AE [3, 6]: 89 (81) n (%)
Any AE leading to discontinuation [3, 6]: 6 (6) n (%)
Any SAE [3, 6]: 1 (1) n (%)
Any infectious AE [3, 6]: 46 (42) n (%)
Any infectious SAE [3, 6]: 0 (0) n (%)
Arthralgia ([3]; common AE in ≧5% of patients): 5 (5) n (%)
Gamma-Glutamyltransferase Increased ([3]; common AE in ≧5% of patients): 0 (0) n (%)
Headache ([3]; common AE in ≧5% of patients): 12 (11) n (%)
Nasopharyngitis ([3]; common AE in ≧5% of patients): 26 (24) n (%)
Nausea ([3]; common AE in ≧5% of patients): 8 (7) n (%)
Pruritus ([3]; common AE in ≧5% of patients): 2 (2) n (%)
Rhinitis ([3]; common AE in ≧5% of patients): 4 (4) n (%)
Rhinorrhea ([3]; common AE in ≧5% of patients): 0 (0) n (%)
PASI 75 Response Rates, % Patients ([4]; Week 4): 3%
PASI 90 Response Rates, % Patients ([4]; Week 4): 1%
PASI 75 Response Rates, % Patients ([4]; Week 8): 9%
PASI 90 Response Rates, % Patients ([4]; Week 8): 3%
PASI 75 Response Rates, % Patients ([4]; Week 12): 25%
PASI 90 Response Rates, % Patients ([4]; Week 12): 9%
PASI 75 ([4]; Week 16, NRI): 36%
PASI 75 Response Rates, % Patients ([4]; Week 16): 36%
PASI 90 Response Rates, % Patients ([4]; Week 16): 14%
PASI 75 Response Rates, % Patients ([4]; Week 16, listed as MTX): 35.5%
PASI 90 Response Rates, % Patients ([4]; Week 16, listed as MTX): 13.6%
PASI 50 response rate ([4]; Week 16 of CHAMPION, NRI): 61.8%
PASI 100 response rate ([4]; Week 16 of CHAMPION, NRI): 7.3%
PGA “Clear” or “Minimal” Responses, % Patients ([5]; Week 4): 1%
PGA “Clear” or “Minimal” Responses, % Patients ([5]; Week 8): 3%
PGA “Clear” or “Minimal” Responses, % Patients ([5]; Week 12): 9%
PGA “Clear” or “Minimal” Responses, % Patients ([5]; Week 16): 14%
